From ChEMBL document CHEMBL3507680, “University of Dundee, Gates Library screen for HepG2 cell viability”

Assay: Human HepG2 cell viability assay in 384 well format
Assay type: toxicity, cell-based
Parameters: dose 125 nL, time 70.5 hour; cytotoxicity at 70.5 h: concentration not given beside the values
Conditions: HepG2 cells, read-out: Inhibition

Compound | cytotoxicity at 70.5 h
O=c1[nH]nc2c(N3CCC(NC4CCOCC4)CC3)nccn12 | -11.2%
CCOCCN1CCC(c2cnccn2)CC1 | 21.8%
O=C(NCC(O)c1ccoc1)Nc1c(F)cccc1F (centres undefined) | -9.03%
O=C(NCc1ccco1)N1CCN(Cc2ccc3c(c2)CCO3)CC1 | -6.39%
Fc1ccccc1-c1cc(N2[C@@H]3CC[C@H]2CNC3)n2nccc2n1 | -3.67%
CC(C)Oc1ncccc1CNC(=O)NC(C)c1cccs1 (centres undefined) | -21%
COc1ccc(F)c(-c2cc(C(=O)NC3CC3)ccn2)c1 | -14.2%
CCO[C@H]1C[C@@H](O)C12CCN(C(=O)CC(F)(F)F)CC2 | -7.18%
Fc1ccccc1Oc1nccnc1C1CCN(C2CCOCC2)CC1 | 30.2%
O=S(=O)(C1CC1)N1CCO[C@@H]2CN(Cc3ccco3)C[C@@H]2C1 | -2.12%
CCCn1c(C)c(CC(=O)N(C)CCOC)c2c1CC(C)(C)CC2=O | -7.09%
CCOCC1CN(C(=O)c2ccncc2)Cc2nn(C)cc21 (centres undefined) | -18%
Cc1cn(CC(=O)NC2CCN(CC3CC3)CC2)c2ccccc12 | -9.9%
CC(C)n1nccc1NC(=O)NCCc1nc2ccc(F)cc2n1C | -11%
Fc1ccc2[nH]c(C3CCCN3Cc3c[nH]cn3)nc2c1 (centres undefined) | 28.4%
O=C(N1CCC(Oc2ccncc2)C1)C1(c2ccc(F)cc2)CC1 (centres undefined) | 5.93%
CC(CCSc1ccccc1)N1CCN(C(=O)c2cccs2)CC1 (centres undefined) | 35.4%
Cc1ccc2nc(C3CCN(CC(C)C)CC3)nc(O)c2c1 | -6.3%
O=C(CN1CCN(CC2CCOc3ccccc3C2)CC1)N1CCCC1 (centres undefined) | -13%
COc1nccnc1-c1cc(NC2CCNCC2)nc2[nH]ccc12 | -0.195%
Cc1csc(CN(C)C2CCN(c3sccc3C#N)C2=O)n1 (centres undefined) | 16%
CC(=O)N1CCN(c2cc(N3CCOCC3)cnn2)CC1 | 6.14%
COc1cc(C)c(CN2CCC3(CC2)C(C(=O)O)CC(=O)N3C)cc1C (centres undefined) | 3.6%

Compound | cytotoxicity at 70.5 h
CC(C)N1CCOC[C@H]1c1nc(-c2ccncc2)c[nH]1 | -1.74%
CC(C)N1CCO[C@H]2CN(C(=O)c3ccccn3)C[C@H]21 | -7.58%
CC(C)N1[C@H](CN2CCCC2)C[C@@H]2CN(C(=O)c3ccoc3)CC[C@@H]21 | 1.33%
CCCC1COCCN1Cc1ccc(NC(C)=O)cc1 (centres undefined) | -3.46%
CC(=O)N1C[C@@H]2C(=O)N(C)C3(CCN(C(=O)C(C)C)CC3)[C@@H]2C1 | -7.63%
CC(C)NC(=O)N1CCN2C(=O)OC[C@H]2C1 | 10.9%
CS(=O)(=O)Cc1nc(CNc2c(F)cc(F)cc2F)cs1 | -2.82%
Cc1nc(CN2CCC(CNC(=O)CCC3CCCC3)CC2)oc1C | -2.1%
CCC(=O)N1CCC2(CC1)C(c1cccnc1)CC(=O)N2CCOC (centres undefined) | 1.53%
CC1CCC(NC(=O)Nc2ccc(CC(=O)N(C)C)cc2)CC1 (centres undefined) | -5.4%
O=C(NCC1(O)CCOc2ccccc21)Nc1ccc2c(c1)OCO2 (centres undefined) | 0.267%
Cc1ncncc1C(=O)N1CCCC(n2cccn2)C1 (centres undefined) | 8.65%
COC(=O)N1CCCC(NC(=O)NCc2ccc(C)nc2)C1 (centres undefined) | -4.96%
O=S1(=O)COCCN1CCOc1ccc(F)cc1 | -5.2%
CCC(C)NC(=O)c1cc(S(=O)(=O)N(C)C)c(C)s1 (centres undefined) | -4.34%
COc1ccc(Cl)cc1-c1nc(N)nc(N)n1 | 26%
CN(Cc1cccc(O)c1)Cc1cnn(C)c1 | -4.55%
CC(NC(=O)NCCNc1cnccn1)c1cccs1 (centres undefined) | -6.24%
COCc1ccc(C(=O)N2CC[C@H](O)[C@@H](n3ccnc3)CC2)cc1 | -6.05%
O=C1CCC(C(=O)Nc2ccc(=O)n(Cc3ccccc3Cl)c2)N1 (centres undefined) | -4.13%
O=C(c1cccc2[nH]ccc12)N1CCC2(CCOC2)C1 (centres undefined) | 2.34%
O=C(NCc1nc(C2CCCCC2)no1)C1CC(=O)N(C2CCCC2)C1 (centres undefined) | -0.128%
O=C(O)C1(Cc2ccc(F)cc2F)CCCN(Cc2ccncc2)C1 (centres undefined) | -5.04%

Compound | cytotoxicity at 70.5 h
CN(C)C[C@@H]1CN(C(=O)Cc2ccccc2)C[C@@H]1CO | -3.7%
CCC(C)N(Cc1cccnc1)C(=O)CCSC (centres undefined) | -8.8%
O=C(Nc1ccc(OC(F)F)cc1)N1CCC(c2nnc[nH]2)CC1 | -2.12%
Cn1cnc(S(=O)(=O)N2CC3(CCN(CC4CC4)C3)C2)c1 | 14.6%
Cc1cc(=O)n2nc(Oc3ccc(C#N)cc3Cl)sc2n1 | -28%
CCn1cc(SCC(=O)N2CCCC(O)(CO)C2)c2ccccc21 (centres undefined) | -8.91%
Cc1cnn(CC2CN(CC(=O)Nc3cc(C)on3)CCO2)c1 (centres undefined) | -5.06%
CNC(=O)c1cc2c(nc1NCC(C)C)CCN(S(C)(=O)=O)CC2 | -5.11%
Cc1cc(NC(=O)N2CCCC2CN2CCOCC2)nn1C (centres undefined) | -10.1%
Cn1cc(CN2CCCC(Cn3cc(CCCO)nn3)C2)cn1 (centres undefined) | -7.9%
CC(=O)N1CCN(C(=O)NCc2ccccc2Cn2cncn2)CC1 | -14.9%
CCC(CC)C(CNC(=O)Nc1cc(C)nn1C)N1CCOCC1 (centres undefined) | 36.9%
O=C(CSCCN1CCOCC1)N1CCCCCC1 | 29.9%
O=C(c1cccc(F)c1)N1C[C@H]2CCCC(OCc3cccnc3)[C@H]2C1 (some centres undefined) | -7.83%
CCn1cc(-c2cc(C(=O)N3CCOCC3)c3cc(Cl)ccc3n2)cn1 | -5.95%
Cc1nc(CNC(=O)NCCc2ccc(N(C)C)cc2)cs1 | -0.758%
Fc1ccc(-c2cnc(C3CCNCC3)cn2)cc1 | -2.13%
CCC(c1ccc(F)cc1)N1CCn2c(CO)nnc2C1 (centres undefined) | -8.02%
Cn1cccc1C(O)CNC(=O)c1ccc(C(F)(F)F)cc1 (centres undefined) | -20.6%
CCNC(=O)[C@@H]1C[C@H](NC(=O)c2cc(CC)n[nH]2)CN1Cc1ccsc1 | -6.78%
Cc1cccc(N2CCN(CC(=O)N3CCCC(N(C)C)CC3)CC2)c1 (centres undefined) | -4.61%
O=C(CC1CC1)N(Cc1cccnc1)CC1CCN(C2CCCC2)CC1 | -1.09%
Cc1cc(N(C)C)nc(N2CCn3c(nnc3C(C)C)C2)n1 | 13.6%

Compound | cytotoxicity at 70.5 h
CN(C)C(=O)N1CCCn2nc(CNC(=O)CCc3cccs3)cc2C1 | 0.772%
CSCc1noc(CN2CCCCC2CCc2ccc(O)cc2)n1 (centres undefined) | -2.26%
CC1c2ncc(Cn3cncn3)n2CCN1C(=O)c1ccsc1 (centres undefined) | -4.72%
c1ccc(NCc2cnc3n2CCN(C2CCOC2)CC3)nc1 (centres undefined) | 15.7%
Cc1cc(C2CCCN(C(=O)c3ccc(OCC4CC4)nc3)C2)n[nH]1 (centres undefined) | -4.64%
Cc1ccc(C(=O)N2CCC(Oc3c(C)cccc3C)CC2)c(=O)[nH]1 | 0.338%
CNc1ncccc1C(=O)N1CCN(Cc2ccc(C)cc2)C(=O)C1C (centres undefined) | -13.8%
CNc1nc(N2CCC3(CCCNC3=O)C2)nc2c1CCC2 (centres undefined) | -6.8%
Cc1cc(NCc2cc3n(n2)CCCN(S(C)(=O)=O)C3)ncn1 | -5.23%
CC(C)CC(=O)N1CC(=O)c2sc(Nc3ccc(F)cc3F)nc2C1 | 0.35%
O=C(CSC1CCc2ccccc2NC1=O)NCc1cccs1 (centres undefined) | -13.4%
CN(C)C(=O)c1nnc2ccc(N3CCOCC3)cc2n1 | -2.48%
COC(=O)CCNC(=O)c1nnn(-c2ccc(C)cc2)c1C1CC1 | 16.4%
Cc1nnc(SCCCNc2cc(C3CC3)ncn2)s1 | 22.4%
CCc1nnc(CN2CCCN(C(=O)c3ccccn3)CC2)o1 | -10.8%
Nc1ccnc(CNc2cc(F)ccc2OCC2CCCO2)n1 (centres undefined) | -9.07%
Cc1c(CN2C[C@H](O)[C@@H](N3CCOCC3)C2)[nH]c2ccc(F)cc12 | 12.2%
Cc1nn(C)c(C)c1CCC(=O)Nc1cccn(C)c1=O | -3.26%
COc1ccc(Br)cc1CN(C)C(C)c1nc(C(C)C)no1 (centres undefined) | -19.6%
Cn1nccc1C(=O)N1CCOC(Cc2ccc(Cl)cc2)C1 (centres undefined) | 0.563%
CC1(C)CN(C(=O)CC2CCS(=O)(=O)CC2)C[C@]1(C)O | -4.68%
CC(C)n1cc2cc(NC(=O)CCS(C)(=O)=O)ccc2n1 | 23.6%
CC(C)(C)CC(=O)NC[C@H]1OC[C@@H](NCc2ccccn2)[C@@H]1O | -10.1%

Compound | cytotoxicity at 70.5 h
CN(CCOc1ccc(C#N)cc1)CC1CCS(=O)(=O)C1 (centres undefined) | -9.8%
CC1CCC(NC(=O)CNC2(c3ccc(Br)cc3)CCOCC2)CC1 (centres undefined) | 4.23%
COCC(=O)NCCC(=O)N1CCN(S(=O)(=O)c2ccc(Br)cc2)CC1 | 13.5%
COCCC1(C(=O)O)CCCN(CC(=O)NCCc2ccccc2)C1 (centres undefined) | 27.1%
Cc1ccc2nc(C)cc(C(=O)NC(C)c3nnn[nH]3)c2c1 (centres undefined) | -0.653%
Cc1ccc(C(=O)N(C)Cc2nccn2CC(F)(F)F)cn1 | -13.5%
Cc1ccnc(N2C[C@@H]3CC[C@H](C2)N(CC2CCC2)C3=O)n1 | 9.42%
O=c1[nH]c2ccccc2c2c1CCO2 | -2.59%
Cc1ccc(N[C@@H]2CN(Cc3cc(C)on3)C[C@@H]3CCCO[C@@H]32)nn1 | 2.24%
CCNC(c1cccnc1)c1ccc(F)cc1F (centres undefined) | 2.45%
CS(=O)(=O)CCS(=O)(=O)Cc1cc(Cl)c2c(c1)OCCCO2 | -5.05%
CCN1CC(C(=O)NC(C)(C)C)CC1=O (centres undefined) | -6.02%
c1nc(CCC2CCCN2)cc(N2CCCCCC2)n1 (centres undefined) | 0.142%
CCn1cnnc1CNC(=O)N1CCCN(C(C)=O)CC1 | -11.8%
Cc1cc(N(C)Cc2ccsc2)n2nc(C)c(C)c2n1 | -10.9%
Cc1ncn(CCNC(=O)Nc2ccc(OC(F)(F)F)cc2)c(=O)c1C | -3.32%
CSCC(CCO)NC(=O)c1cccc(Cl)c1F (centres undefined) | -16.7%
CSC(CNS(C)(=O)=O)c1cccc(Cl)c1 (centres undefined) | 24%
CN(Cc1ccccc1)c1ncccc1CNC(=O)c1ccnn1C | -10.4%
Cc1ccc(N(CC(=O)c2ccc(Br)cc2)C2=NCCCCC2)cc1 | 16.7%
CCc1nnc(CN(C)Cc2cccc(C(=O)Nc3cnn(C)c3)c2)o1 | 3.92%
CN1CCN2C(=O)N(C3CCCCC3)C[C@H]2C1 | -5.56%
